# Patent US20100093811A1 (priority 2007, published 2010)
# Where a name gives a salt, the structure may show the parent alone. Read-outs that look alike come from different tables or passages of the source.
# How the values were obtained:
# wild-type HIV-1 protease = wild-type HIV-1 protease (Human immunodeficiency virus type 1 group M subtype B, UniProt P04585); assay: Assay for inhibition of microbial expressed HIV protease; format: biochemical
# How it was run: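 E. coli-expressed protease (5 pM) preincubated with inhibitor 30 min at room temperature in 50 mM sodium acetate pH 5.5, 100 mM NaCl, 0.1% BSA. Substrate Val-Ser-Gln-Asn-(betanapthyl)Ala-Pro-Ile-Val at 440 micromolar, 1 h at 30° C; acid-quenched, product peak area by C18 HPLC gives inhibition.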
# [1] = test system: acute HIV infection of T-lymphoid cells; assay: Assay for inhibition of HIV replication (spread assay); format: cell-based, HIV-1; conditions: read-out: Spread - IC95
# Procedure: • Assay for Inhibition of HIV Replication
# Assays for the inhibition of acute HIV infection of T-lymphoid cells were conducted in accordance with Vacca, J. P. et al., Proc. Natl. Acad. Sci. USA 1994, 91: 4096.
# [2] = wild-type HIV-1 protease expressed in E. coli, peptide substrate, pH 5.5, read-out: Enzyme Inhibition - IC50
# [3] = Human immunodeficiency virus 1, T-lymphoid
Compound,IC50 (wild-type HIV-1 protease; [2]) [nM],"IC95 ([1]; inhibition of HIV-1 replication, 10% FBS) [nM]","IC95 [1, 3] [nM]",IC50 (wild-type HIV-1 protease) [nM]
"COC(=O)N[C@H](C(=O)N[C@H](CCC[C@@H](CO)N(C(C)C)S(=O)(=O)c1ccc(N)cc1)C(F)(F)F)C(c1ccccc1)c1ccccc1 [Example H3, N-[(1R,55)-5-[[(4-aminophenyl)sulfonyl](isopropyl)amino]-6-hydroxy-1-(trifluoromethyl)hexyl]-Nα-(methoxycarbonyl)-β-phenyl-L-phenylalaninamide]",0.076,18,–,–
"COC(=O)N[C@@H](Cc1ccccc1Cl)C(=O)N[C@@H](C)CCC[C@@H](CO)N(CC(C)C)S(=O)(=O)c1ccc(CO)cc1 [Example G2, 2-chloro-N-{(1S,5S)-6-hydroxy-5-[{[4-(hydroxymethyl)phenyl]sulfonyl}(isobutyl)amino]-1-methylhexyl}-Nα-(methoxycarbonyl)-L-phenylalaninamide]",0.082,–,14,–
"CC[C@@H](CCC[C@@H](CO)N(CC(C)C)S(=O)(=O)c1ccc(CO)cc1)NC(=O)[C@@H](NC)C(c1ccccc1)c1ccccc1 [Example J24, N-{(1S,5S)-1-ethyl-6-hydroxy-5-[{[4-(hydroxymethyl)phenyl]sulfonyl}(isobutyl)amino]hexyl}-Nα-methyl-β-phenyl-L-phenylalaninamide hydrochloride]",–,–,16,0.055
"COC(=O)N[C@H](C(=O)N[C@@H](C)CCC[C@@H](CO)N(C)S(=O)(=O)c1ccc(N)cc1)C(c1ccccc1)c1ccccc1 [Example G4, N-{(1S,5S)-5-[[(4-aminophenyl)sulfonyl](methyl)amino]-6-hydroxy-1-methylhexyl}-Nα-(metboxycarbonyl)-β-phenyl-L-phenylalaninamide]",0.405,–,41,–
"COC(=O)N[C@@H](Cc1ccccc1Cl)C(=O)N[C@H](CCC[C@@H](CO)N(CCC(C)C)S(=O)(=O)c1ccc(CO)cc1)C(C)C [Example J26, 2-chloro-N-{(1R,5S)-6-hydroxy-5-[{[4-(hydroxymethyl)phenyl]sulfonyl}(3-methylbutyl)amino]-1-isopropylhexyl}-Nα-(methoxycarbonyl)-L-phenylalaninamide]",1.33,–,110,–
"COC(=O)N[C@@H](Cc1ccccc1Br)C(=O)N[C@@H](C)CCC[C@@H](CO)N(CC(C)C)S(=O)(=O)c1ccc(CO)cc1 [Example G12, 2-bromo-N-{(1S,5S)-6-hydroxy-5-[{[4-(hydroxymethyl)phenyl]sulfonyl}(isobutyl)amino]-1-methylhexyl}-Nα-(methoxycarbonyl)-L-phenylalaninamide]",0.055,–,15,–
"COC(=O)N[C@H](C(=O)N[C@H](CCC[C@@H](CO)N(CCC(C)C)S(=O)(=O)c1ccc(N)cc1)C(C)C)C(c1ccccc1)c1ccccc1 [Example D10, N-{(1R,5S)-5-[[(4-aminophenyl)sulfonyl](3-methylbutyl)amino]-6-hydroxy-1-isopropylhexyl}-Nα-(methoxycarbonyl)-β-phenyl-L-phenylalaninamide]",0.099,–,37,–
"CCC[C@@H](CCC[C@@H](CO)N(CCCF)S(=O)(=O)c1ccc(N)cc1)NC(=O)[C@@H](NC(=O)OC)C(c1ccccc1)c1ccccc1 [Example D13, N-{(1S,5S)-5-[[(4-aminophenyl)sulfonyl](3-fluoropropyl)amino]-6-hydroxy-1-propylhexyl}-Nα-(methoxycarbonyl)-β-phenyl-L-phenylalaninamide]",0.867,–,213,–
"COC(=O)N[C@H](C(=O)N[C@H](CCC[C@@H](CO)N(C(C)C)S(=O)(=O)c1ccc(CO)cc1)C1CC1)C(c1ccccc1)c1ccccc1 [Example I3, N-{(1R,5S)-1-cyclopropyl-6-hydroxy-5-[{[4-(hydroxymethyl)phenyl]sulfonyl}(isopropyl)amino]hexyl}-Nα-(methoxycarbonyl)-β-phenyl-L-phenylalaninamide]",0.134,–,50,–
"COC(=O)N[C@@H](Cc1cccc(Cl)c1Cl)C(=O)N[C@@H](C)CCC[C@@H](CO)N(C(C)C)S(=O)(=O)c1ccc(N)cc1 [Example F16, N-{(1S,5S)-5-[[(4-aminophenyl)sulfonyl](isopropyl)amino]-6-hydroxy-1-methylhexyl}-2,3-dichloro-Nα-(methoxycarbonyl)-L-phenylalaninamide]",–,–,58,0.128
"CC(C)CCN([C@H](CO)CCC[C@@H](NC(=O)[C@@H](N)C(c1ccc(F)cc1)c1ccc(F)cc1)C1CC1)S(=O)(=O)c1ccc([C@H](C)O)cc1 [Example J18, N-{(1R,5S)-1-cyclopropyl-6-hydroxy-5-[({4-[(1S)-1-hydroxyethyl]phenyl}sulfonyl)(3-methylbutyl)amino]hexyl}-4-fluoro-β-(4-fluorophenyl)-L-phenylalaninamide hydrochloride]",–,–,8,0.01
"COC(=O)N[C@H](C(=O)N[C@H](CCC[C@@H](CO)N(CCC(C)C)S(=O)(=O)c1ccc(Cl)cc1)C1CC1)C(c1ccccc1)c1ccccc1 [Example E4, N-{(1R,5S)-5-[[(4-chlorophenyl)sulfonyl](3-methylbutyl)amino]-1-cyclopropyl-6-hydroxyhexyl}-Nα-(methoxycarbonyl)-β-phenyl-L-phenylalaninamide]",0.201,–,22,–
"CC[C@@H](CCC[C@@H](CO)N(C(C)C)S(=O)(=O)c1ccc(N)cc1)NC(=O)[C@@H](NC(=O)OC)C(c1ccccc1)c1ccccc1 [Example G18, N-{(1S,5S)-5-[[(4-aminophenyl)sulfonyl](isopropyl)amino]-1-ethyl-6-hydroxyhexyl}-Nα-(methoxycarbonyl)-β-phenyl-L-phenylalaninamide]",0.755,–,199,–
"COC(=O)N[C@H](C(=O)N[C@H](CCC[C@@H](CO)N(CCC(C)C)S(=O)(=O)c1ccc(N)c(F)c1)C1CC1)C(c1ccccc1)c1ccccc1 [Example E3, N-{(1R,5S)-5-[[(4-amino-3-fluorophenyl)sulfonyl](3-methylbutyl)amino]-1-cyclopropyl-6-hydroxyhexyl}-Nα-(methoxycarbonyl)-β-phenyl-L-phenylalaninamide]",0.057,–,11,–
"COC(=O)N[C@H](C(=O)N[C@@H](C)CCC[C@@H](CO)N(C(C)C)S(=O)(=O)c1ccc(CO)cc1)C(c1ccccc1)c1ccccc1 [Example K1, N-{(1S,5S)-6-hydroxy-5-[{[4-(hydroxymethyl)phenyl]sulfonyl}(isopropyl)amino]-1-methylhexyl}-Nα-(methoxycarbonyl)-β-phenyl-L-phenylalaninamide]",0.018,–,13,–
"CC[C@@H](CCC[C@@H](CO)N(CCC(C)C)S(=O)(=O)c1ccc(N)c(F)c1)NC(=O)[C@@H](NC(=O)OC)C(c1ccccc1)c1ccccc1 [Example D3, N-{(1S,5S)-5-[[(4-amino-3-fluorophenyl)sulfonyl](3-methylbutyl)amino]-1-ethyl-6-hydroxyhexyl}-Nα-(methoxycarbonyl)-b-phenyl-L-phenylalaninamide]",0.054,–,12,–
"CC[C@@H](CCC[C@@H](CO)N(CCC(C)C)S(=O)(=O)c1ccc(N)cc1)NC(=O)[C@@H](N)C(c1ccccc1)c1ccccc1 [Example F13, N-{(1S,5S)-5-[[(4-aminophenyl)sulfonyl](3-methylbutyl)amino]-1-ethyl-6-hydroxyhexyl}-β-phenyl-L-phenylalaninamide]",0.01,–,15,–
"CC[C@@H](CCC[C@@H](CO)N(C(C)C)S(=O)(=O)c1ccc(CO)cc1)NC(=O)[C@@H](NC(=O)OC)C(c1ccccc1)c1ccccc1 [Example G19, N-{(1S,5S)-1-ethyl-6-hydroxy-5-[{[4-(hydroxymethyl)phenyl]sulfonyl}(isopropyl)amino]hexyl}-Nα-(methoxycarbonyl)-β-phenyl-L-phenylalaninamide]",0.076,–,43,–
"COC(=O)N[C@H](C(=O)N[C@@H](C)CCC[C@@H](CO)N(CCC(C)C)S(=O)(=O)c1ccc(N)c(F)c1)C(c1ccccc1)c1ccccc1 [Example D12, N-{(1S,5S)-5-[[(4-amino-3-fluorophenyl)sulfonyl](3-methylbutyl)amino]-6-hydroxy-1-methylhexyl}-Nα-(methoxycarbonyl)-β-phenyl-L-phenylalaninamide]",0.012,–,6,–
"CC[C@@H](CCC[C@@H](CO)N(CCC(C)C)S(=O)(=O)c1ccc(CO)cc1)NC(=O)[C@@H](N)C(c1ccccc1)c1ccccc1 [Example J31, N-{(1S,5S)-1-ethyl-6-hydroxy-5-[{[4-(hydroxymethyl)phenyl]sulfonyl}(3-methylbutyl)amino]hexyl}-β-phenyl-L-phenylalaninamide hydrochloride]",–,–,23,0.01
"COC(=O)N[C@H](C(=O)N[C@H](CCC[C@@H](CO)N(CC(C)C)S(=O)(=O)c1ccc2ncsc2c1)C1CC1)C(c1ccccc1)c1ccccc1 [Example E6, N-{(1R,5S)-5-[(1,3-benzothiazol-6-ylsulfonyl)(isobutyl)amino]-1-cyclopropyl-6-hydroxyhexyl}-Nα-(methoxycarbonyl)-β-phenyl-L-phenylalaninamide]",0.352,–,27,–
"CCCN([C@H](CO)CCC[C@H](CC)NC(=O)[C@H](Cc1cccc2ccccc12)NC(=O)OC)S(=O)(=O)c1ccc(CO)cc1 [Example J41, methyl [(1S)-2-({(1S,5S)-1-ethyl-6-hydroxy-5-[{[4-(hydroxymethyl)phenyl]sulfonyl}(propyl)amino]hexyl}amino)-1-(1-naphthylmethyl)-2-oxoethyl]carbamate]",0.564,–,54,–
